Columns and labels:
[1] = system: total crude protein phosphatases; test: Arachidonic acid stimulation of crude PPP extracts, phosphopeptides as substrate; type: biochemical, H. armigera, M. separata and P. xylostella; conditions: larvae extracts of three insects
Description: (§1) One gram of 4th instar larvae of each insects were ground into a homogeneous state in ice-cold 20 mM Tris (pH = 7.5), 0.1% β-mercaptoethanol, 1 mM EDTA, 1 mM benzamidine and 1 mM (PMSF). This was then centrifuged at 12,000 g for 30 min at 4°C. The supernatant extract was desalted using Sephadex G-25 spin columns (GE Healthcare, Boston, MA, USA) to remove the contaminating free phosphate as described in the instruction manual. Each insect extract contained three biological replicates. Protein concentration was estimated using the method of Bradford.
(§2) Phosphatases activity of crude extract was determined towards phosphopeptides using PPP assay kit (Promega, Madison, WI, USA) in half-area 96-well plates (Corning, NY, USA) following the manual instruction. In brief, 1.0 µg protein was mixed in assay buffer of 50 mM imidazole (pH 7.2), 0.2 mM EGTA, 0.02% β-mercaptoethanol, 0.1 mg ml^−1 BSA, and pre-warmed to 30°C. Reaction was initiated after adding 100 µM phosphopeptides, RRA(pT)VA to obtain a final volume of 50 µL and incubated at 30°C for 15 min. The reaction was stopped by adding 50 µL of molybdate dye/additive mixture and incubated for an additional 15 min at room temperature for color development. Control samples were determined without enzyme.

recombinant MsPP5 [2] = target: T1, recombinant MsPP5 (Mythimna separata, UniProt A0A059TAW5); test: Arachidonic acid stimulation assay and kinetics of recombinant MsPP5, pNPP as substrate; type: biochemical
T1 sequence (A0A059TAW5 1-490): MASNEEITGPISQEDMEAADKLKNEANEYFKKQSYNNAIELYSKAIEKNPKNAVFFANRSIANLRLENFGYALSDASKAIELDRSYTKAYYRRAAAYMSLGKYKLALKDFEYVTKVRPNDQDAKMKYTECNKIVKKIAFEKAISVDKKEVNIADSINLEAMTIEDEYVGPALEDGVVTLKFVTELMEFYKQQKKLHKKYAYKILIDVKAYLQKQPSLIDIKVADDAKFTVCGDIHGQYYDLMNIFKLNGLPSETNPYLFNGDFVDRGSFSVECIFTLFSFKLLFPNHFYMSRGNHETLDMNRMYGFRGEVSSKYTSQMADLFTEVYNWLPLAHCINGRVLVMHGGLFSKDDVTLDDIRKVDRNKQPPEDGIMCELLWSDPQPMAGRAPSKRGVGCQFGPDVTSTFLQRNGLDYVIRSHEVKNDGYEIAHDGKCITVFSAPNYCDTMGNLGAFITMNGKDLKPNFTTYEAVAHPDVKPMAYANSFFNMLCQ
Excerpt: (§3) Non-enzyme samples were taken as controls.

recombinant HaPP5 [3] = target: T2, recombinant HaPP5 (Helicoverpa armigera, UniProt A0A059TAS5); test: Arachidonic acid stimulation assay and kinetics of recombinant HaPP5, pNPP as substrate; type: biochemical
T2 sequence (A0A059TAS5 1-490): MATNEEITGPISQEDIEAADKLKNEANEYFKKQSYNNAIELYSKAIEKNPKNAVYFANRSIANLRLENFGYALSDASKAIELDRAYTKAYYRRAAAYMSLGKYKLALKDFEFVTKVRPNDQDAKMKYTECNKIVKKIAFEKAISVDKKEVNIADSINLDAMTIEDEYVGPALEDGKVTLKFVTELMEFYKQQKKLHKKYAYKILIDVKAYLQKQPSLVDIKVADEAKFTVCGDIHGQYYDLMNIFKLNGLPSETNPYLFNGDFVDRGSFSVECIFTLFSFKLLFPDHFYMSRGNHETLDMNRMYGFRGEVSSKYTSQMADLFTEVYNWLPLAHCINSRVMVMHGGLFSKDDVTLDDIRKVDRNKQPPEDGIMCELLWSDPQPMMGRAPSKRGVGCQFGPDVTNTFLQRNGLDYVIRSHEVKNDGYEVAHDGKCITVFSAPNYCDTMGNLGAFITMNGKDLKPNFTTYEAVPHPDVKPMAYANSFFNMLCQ
Excerpt: as §3

[4] = system: E. coli expressed PP5 from T. brucei; set-up: method as in PMID 11290414; conditions: cited from earlier work
recombinant PxPP5 [5] = target: T3, recombinant PxPP5 (Plutella xylostella, UniProt W0FSW2); test: Arachidonic acid stimulation assay and kinetics of recombinant PxPP5, pNPP as substrate; type: biochemical
T3 sequence (W0FSW2 1-491): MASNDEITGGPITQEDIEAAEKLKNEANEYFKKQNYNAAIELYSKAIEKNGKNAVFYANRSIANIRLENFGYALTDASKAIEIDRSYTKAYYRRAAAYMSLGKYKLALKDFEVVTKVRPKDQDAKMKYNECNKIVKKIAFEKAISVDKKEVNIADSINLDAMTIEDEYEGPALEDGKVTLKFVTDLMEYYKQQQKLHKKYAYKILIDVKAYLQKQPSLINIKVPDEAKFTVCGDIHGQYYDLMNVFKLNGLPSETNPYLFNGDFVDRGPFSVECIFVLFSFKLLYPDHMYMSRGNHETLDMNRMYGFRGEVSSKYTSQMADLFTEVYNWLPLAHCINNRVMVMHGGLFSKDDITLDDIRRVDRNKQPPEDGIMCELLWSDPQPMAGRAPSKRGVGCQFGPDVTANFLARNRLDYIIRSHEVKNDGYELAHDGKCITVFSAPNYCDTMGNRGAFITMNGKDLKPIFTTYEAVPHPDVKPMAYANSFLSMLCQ
Excerpt: as §3

[6] = system: E. coli expressed PP5 from P. falciparum; set-up: method as in PMID 11897131; conditions: cited from earlier work
[7] = system: E. coli expressed PP5 from E. chinensis; set-up: method as in PMID 24351830; conditions: cited from earlier work
recombinant HaPP5 [8] = target: T2, recombinant HaPP5; test: Inhibition assay of recombinant HaPP5 phosphatase activity, pNPP as substrate; type: biochemical
Description: as §3
(§4) Three candidate inhibitors were dissolved in dimethyl sulphoxide (DMSO) to provide stock solutions of 10 mM for okadaic acid, 100 mM for cantharidin, and 200 mM for endothall, respectively. All solutions were diluted to the desired concentrations with assay buffer before use. Assays were carried out using pNPP as substrate for purified proteins or using RRA(pT)VA as substrate for crude PPP extract. Before initiating the reaction, the enzyme was incubated with the chemicals for 5 min at room temperature. A dose-response assay was used to determine the IC50 values. The non-enzyme reaction was taken as the background control, while the non-inhibitor reaction was used as the full-activity control.

recombinant MsPP5 [9] = target: T1, recombinant MsPP5; test: Inhibition assay of recombinant MsPP5 phosphatase activity, pNPP as substrate; type: biochemical
Description: as §3, §4

crude PPP extracts = test: Inhibition of phosphatase activity of crude PPP extracts, phosphopeptide RRA(pT)VA as substrate; type: biochemical, H. armigera, M. separata and P. xylostella; conditions: treated with 1.0 µM inhibitor, range over three insect extracts
Description: as §1, §2, §4

recombinant PxPP5 [10] = target: T3, recombinant PxPP5; test: Inhibition assay of recombinant PxPP5 phosphatase activity, pNPP as substrate; type: biochemical
Description: as §3, §4

[11] = system: three lepidopteran PP5 proteins; test: Inhibition of the three recombinant lepidopteran PP5 proteins (stated jointly), pNPP as substrate; type: biochemical, H. armigera, M. separata and P. xylostella; conditions: range over HaPP5, MsPP5 and PxPP5
Description: as §3, §4

E. chinensis PP5 = system: E. chinensis PP5; set-up: method as in PMID 24351830; conditions: cited from earlier work
[12] = substrate: O=[N+]([O-])c1ccc(OP(=O)(O)O)cc1; test: purified protein, by the assay type; conditions: pH 7.5; 30.0 °C
[13] = 0.25 h, up to, dose dependent, maximum activation at 150 µM
[14] = addition of 150 µM arachidonic acid
[15] = up to, dose dependent, maximum activation at 150 µM, 15 min, 150 µM

Question: Which results are given for `CCCCC/C=C\C/C=C\C/C=C\C/C=C\CCCC(=O)O` [arachidonic acid]?
Answer: Stimulation of phosphatase activity of total crude extracts [1]: no significant stimulation; maximal fold induction at 150 µM (recombinant MsPP5 [2]; [13]): ~2; Elevation of Vmax value of MsPP5 (recombinant MsPP5 [2]; [14]): 1.54 fold; Reduction of Km value of MsPP5 (recombinant MsPP5 [2]; [14]): 1.86 fold; Stimulation of activity of recombinant MsPP5 (recombinant MsPP5 [2]; [15]): ≤ 1.99 fold; maximal fold induction at 150 µM (recombinant HaPP5 [3]; [13]): ~2; Elevation of Vmax value of HaPP5 (recombinant HaPP5 [3]; [14]): 1.33 fold; Reduction of Km value of HaPP5 (recombinant HaPP5 [3]; [14]): 2.07 fold; Stimulation of activity of recombinant HaPP5 (recombinant HaPP5 [3]; [15]): up to 1.78 fold; Maximum activation of E. coli expressed PP5 from T. brucei [4]: 2.6 fold; maximal fold induction at 150 µM (recombinant PxPP5 [5]; [13]): ~2; Elevation of Vmax value of PxPP5 (recombinant PxPP5 [5]; [14]): 1.26 fold; Reduction of Km value of PxPP5 (recombinant PxPP5 [5]; [14]): 2.16 fold; Stimulation of activity of recombinant PxPP5 (recombinant PxPP5 [5]; [15]): ≤ 1.81 fold; Maximum activation of E. coli expressed PP5 from P. falciparum [6]: 2.0 fold; Maximum activation of E. coli expressed PP5 from E. chinensis [7]: 2.3 fold

Question: With `C[C@@]12C(=O)OC(=O)[C@]1(C)[C@H]1CC[C@@H]2O1` [cantharidin] as the molecule, how does the IC50 (recombinant HaPP5 [8]) read?
Answer: 1.28 ± 0.31 µM

Question: And the IC50 (recombinant MsPP5 [9])?
Answer: 2.38 ± 0.48 µM

Question: And the “Residual phosphatase activities of the three crude extracts” value (from here on “Residual phosphatase activities”) (crude PPP extracts)?
Answer: 57.65–61.23%

Question: What about the IC50 (recombinant PxPP5 [10]) of the same molecule?
Answer: 0.73 ± 0.27 µM

Question: And the IC50 [11]?
Answer: 0.73 to 2.38 µM

Question: For `O=C(O)[C@@H]1[C@H](C(=O)O)[C@H]2CC[C@@H]1O2` [endothall], which IC50 (recombinant HaPP5 [8]) is on record?
Answer: 19.3 ± 2.34 µM

Question: What about the IC50 (recombinant MsPP5 [9]) of the same molecule?
Answer: 12.6 ± 1.62 µM

Question: What about the “Residual phosphatase activities” value (crude PPP extracts) of the same molecule?
Answer: 83.77–87.66%

Question: What about the IC50 (recombinant PxPP5 [10]) of the same molecule?
Answer: 6.84 ± 0.47 µM

Question: With `C=C1[C@@H](O)[C@@H]2O[C@]3(CC[C@H](/C=C/[C@@H](C)[C@@H]4CC(C)=C[C@@]5(O[C@H](C[C@@](C)(O)C(=O)O)CC[C@H]5O)O4)O3)CC[C@H]2O[C@@H]1[C@@H](O)C[C@H](C)[C@H]1O[C@@]2(CCCCO2)CC[C@H]1C` [okadaic acid] as the molecule, how does the IC50 (recombinant HaPP5 [8]) read?
Answer: 0.0418 ± 0.00331 µM

Question: What about the IC50 (E. chinensis PP5) of the same molecule?
Answer: 0.19 µM

Question: What about the IC50 (recombinant MsPP5 [9]) of the same molecule?
Answer: 0.0176 ± 0.0032 µM

Question: And the “Residual phosphatase activities” value (crude PPP extracts)?
Answer: 16.37–18.89%

Question: What about the IC50 (recombinant PxPP5 [10]) of the same molecule?
Answer: 0.025 ± 0.00164 µM

B1: MsPP5 (Mythimna separata) (protein)
chain: T1 sequence (A0A059TAW5 1-490)
Question: For B1, which Km [12] is on record?
Answer: 9.01 ± 0.51 mM

B2: PxPP5 (Plutella xylostella) (protein)
chain: T3 sequence (W0FSW2 1-491)
Question: With B2 as the molecule, how does the Km [12] read?
Answer: 8.83 ± 0.75 mM

B3: HaPP5 (Helicoverpa armigera) (protein)
chain: T2 sequence (A0A059TAS5 1-490)
Question: For B3, which Km [12] is on record?
Answer: 8.64 ± 0.95 mM
